Experiments:
Format in all cases: in vivo
[1] = tested on: 3rd-instar larvae of Pyrausta nubilalis Hubern; experiment: Joint toxicity of I-72 + metaflumizone, artificial diet-pesticide film, Example 2, Table 2; conditions: 72 h, A = compound I-72, B = metaflumizone
Protocol: (§1) Test subject: 3rd-instar larvae of Pyrausta nubilalis Hubern, a sensitive strain reared indoors.
(§2) Experimental method: the artificial diet-pesticide film method was adopted. A standard clean 24-well culture plate was selected. 1 ml of artificial diet was added to each well. After the diet cooled and solidified, a quantitative amount of a pesticide solution was added to the culture plate using a continuous sampler, and then it was air-dried naturally in the shade. The standard test insects were introduced, with 1 insect in each well, a total of 48 insects. The treated test insects were placed in an observation room under certain conditions. The reaction of the test insects was regularly observed, and the number of dead and live insects was investigated 72 h later.
(§3) The test conditions, the preparation method of the pesticide solution, and the evaluation method (Sun Y-P) for the joint action type of the mixture were the same as those in Example 1.

[2] = tested on: 3rd-instar larvae of Plutella xylostella; experiment: Joint toxicity of I-72 + metaflumizone, airbrush spraying, Example 4, Table 4; conditions: airbrush spraying of cabbage leaf disks, 72 h, A = compound I-72, B = metaflumizone
Protocol: Test target: 3rd-instar larvae of Plutella xylostella, a sensitive strain reared indoors.
Test conditions: temperature: 25-27° C., humidity: RH 60%, and illumination: L:D=14:10
Experimental method: the airbrush spraying method was adopted. The cabbage cultivated in the greenhouse was taken and made into leaf disks with a diameter of 3 cm. After uniform spraying treatment with an airbrush manual sprayer, the leaf disks were placed in a 9-cm Petri dish lined with filter paper. After natural air-drying in the shade, the standard test insects were introduced, and the number of dead and live insects was investigated 72 h later.
The preparation of the pesticide solution and the evaluation method (Sun Y-P) for the joint action type of the mixture were the same as those in Example 1.

[3] = tested on: Bemisia tabaci (Gennadius) nymphs; experiment: Joint toxicity of I-72 + organophosphorus insecticides, cotton leaf-disk spraying, Example 18, Table 18; conditions: 96 h
Protocol: Test target: Bemisia tabaci (Gennadius) nymphs.
(§4) Preparation of the pesticide solution: according to different test requirements, the test samples were accurately weighed respectively with an electronic analytical balance. The technical pesticides were dissolved in acetone, and then diluted with 0.1% Tween 80 water into a series of pesticide solutions with a certain concentration gradient according to the experimental design dosage.
Experimental method: first, cotton leaves with neat and consistent Bemisia tabaci (Gennadius) nymphs were selected and made into leaf disks, with about 20 insects on each leaf disk. Then, they were evenly sprayed with the pesticide solution in the order from low dosage to high dosage according to the experimental design, with 1.5 mL for each leaf and 3 replicates for each treatment. In addition, a blank control was set up.
(§5) The treated test materials were placed in an observation room, and the temperature, humidity and illumination of the observation room could be adjusted as needed. The number of dead and live insects was investigated 96 hours later. The corrected mortality rate was calculated using the Abbott's formula, and statistical analysis was performed with the DPS data processing software to obtain the toxicity regression equation, LC50 value and 95% confidence limit of each single test pesticide and each mixture of different ratios. Then, the co-toxicity coefficient of each ratio was calculated using the Sun Y-P method to evaluate the mixing effect (the same as in Example 1).

[4] = tested on: 3rd-instar larvae of Ostrinia furnacalis Guenee; experiment: Joint toxicity of I-72 + organophosphorus insecticides, corn stalk dipping, Example 21, Table 21; conditions: 48 h
Protocol: Test target: 3rd-instar larvae of Ostrinia furnacalis Guenee, a sensitive strain reared indoors.
as §4
Experimental method: first, fresh tender corn stalks cultivated in the greenhouse were selected, cut into small sections of 3 cm, and dipped in the prepared pesticide solution for 10 s in the order from low dosage to high dosage according to the experimental design. After natural air-drying in the shade, they were placed in a 9-cm-diameter Petri dish with filter paper, and uniform and healthy test insects were introduced, with 10 insects for each treatment and 3 replicates for each treatment. In addition, a blank control was set up.
as §5, with “48” for “96”

[5] = tested on: 3rd-instar larvae of Chilo suppressalis (Walker); experiment: Joint toxicity of I-72 + organophosphorus insecticides, rice seedling dipping, Example 15, Table 15; conditions: 48 h
Protocol: Test target: 3rd-instar larvae of Chilo suppressalis (Walker), a sensitive strain reared indoors.
as §4
Experimental method: first, tender and fresh rice seedlings were selected and dipped in the prepared pesticide solution for 10 s in the order from low dosage to high dosage according to the experimental design. After natural air-drying in the shade, they were cut into small sections of 5 cm, placed in a 9-cm-diameter Petri dish with filter paper, and uniform and healthy test insects were introduced, with 10 insects for each treatment and 3 replicates for each treatment. In addition, a blank control was set up.
as §5, with “48” for “96”

[6] = tested on: adult Phyllotreta spp.; experiment: Joint toxicity of I-72 + organophosphorus insecticides, cabbage seedling spraying, Example 19, Table 19; conditions: 72 h
Protocol: Test target: adult Phyllotreta spp., a sensitive strain reared indoors.
as §4
Experimental method: first, fresh cabbage seedlings cultivated in the greenhouse were selected and evenly sprayed with the pesticide solution in the order from low dosage to high dosage according to the experimental design. After natural air-drying in the shade, they were covered with a glass cover, and uniform and healthy test insects were introduced, with 10 insects for each treatment and 3 replicates for each treatment. In addition, a blank control was set up.
as §5, with “72” for “96”

[7] = tested on: 3rd-instar larvae of Spodoptera frugiperda; experiment: Joint toxicity of I-72 + indoxacarb, corn leaf dipping, Example 3, Table 3; conditions: 72 h, A = compound I-72, B = indoxacarb
Text: (§6) Test subject: 3rd-instar larvae of Spodoptera frugiperda, a sensitive strain reared indoors.
(§7) Experimental method: the dipping method was adopted. The corn leaves cultivated in the greenhouse were taken, cut into leaf segments of 5 cm long, dipped in the prepared pesticide solution for 10 s, and then cut into small pieces of 1.5 cm×1.5 cm after natural air-drying in the shade. These pieces were placed in a 24-well culture plate, and the standard test insects were introduced, with 48 insects for each treatment. The treated test insects were placed in an observation room under certain conditions. The reaction of the test insects was regularly observed, and the number of dead and live insects was investigated 72 h later.
as §3

[8] = tested on: 3rd-instar larvae of Spodoptera exigua Hübner; experiment: Joint toxicity (LC50, CTC) of I-72 + indoxacarb, leaf-disk dipping, Example 1, Table 1; conditions: cabbage leaf-disk dipping, 72 h, A = compound I-72, B = indoxacarb
Protocol: (§8) Test subject: 3rd-instar larvae of Spodoptera exigua Hübner, a sensitive strain reared indoors.
Test conditions: temperature: 24-26° C., humidity: RH 60%, and illumination: L:D=14:10.
(§9) Preparation method: the test pesticides were accurately weighed respectively with an electronic analytical balance. After the two technical materials were respectively added into an appropriate amount of solvent and completely dissolved, the stock solution of the required concentration was prepared with water containing 0.1% Tween 80. The stock solutions of the two active ingredients were mixed in a certain ratio to prepare a mixed solution, which was then diluted respectively into a series of pesticide solutions with a certain concentration gradient according to the experimental design dosage.
Experimental method: the dipping method was adopted. […]
The co-toxicity coefficient (CTC value) of the mixture was calculated according to the following formula:
[formula] • in the formula: ATI-measured toxicity index of the mixture; S-LC50 of the standard pesticide; and M-LC50 of the mixture. […]
[formula] • in the formula: CTC-co-toxicity coefficient; ATI-measured toxicity index of the mixture; and TTI-theoretical toxicity index of the mixture. • CTC-co-toxicity coefficient • ATI-measured toxicity index of the mixture • TTI-theoretical toxicity index of the mixture

[9] = tested on: 3rd-instar larvae of Spodoptera exigua Hübner; experiment: Joint toxicity of I-72 + emamectin benzoate, leaf-disk dipping, Example 9, Table 9; conditions: cabbage leaf-disk dipping, 72 h, A = compound I-72, B = emamectin benzoate
Text: as §8
Experimental method: the dipping method was adopted. The cabbage leaves cultivated in the greenhouse were taken, the surface wax layer was removed, and leaf disks with a diameter of 3 cm were made with a puncher. The leaf disks were dipped in the prepared pesticide solution for 10 s, and then put into a 9-cm-diameter Petri dish lined with filter paper. After natural air-drying in the shade, the standard test insects were introduced, with 10 insects placed in each dish and 3 replicates performed. The treated test insects were placed in an observation room under certain conditions. The reaction of the test insects was regularly observed, and the number of dead and live insects was investigated 72 h later.
(§10) The test conditions, the preparation of the pesticide solution and the evaluation method were the same as those in Example 1.

[10] = tested on: 3rd-instar larvae of Pyrausta nubilalis Hubern; experiment: Synergism assay (Bliss) of I-72 + abamectin, spinosad, spinetoram, emamectin benzoate, Example 6, Table 6; conditions: 72 h
Protocol: as §1
Test conditions: temperature: 24-26° C., humidity: RH 60%, and illumination: L:D=14:10
as §9, §2
The evaluation method adopted was the Bliss method. This method is applicable to the qualitative screening of insecticidal compositions. According to the concept of independent joint action he proposed, Bliss believes that the theoretical mortality rate P when insecticides are used in combination can be calculated by the following formula: […]
Pm is the mortality rate (%) of the target when the first active ingredient is at a concentration of m; and Pn is the mortality rate (%) of the target when the second active ingredient is at a concentration of n.
If the actual mortality rate of the target after the two active ingredients are mixed at a certain concentration is greater than theoretical mortality rate P, it is determined that the two active ingredients have a synergistic effect when used in combination at the set concentration, and otherwise, they have an antagonistic effect.

[11] = tested on: adult Bemisia tabaci (Gennadius); experiment: Joint toxicity of I-72 + emamectin benzoate, seedling spraying, Example 12, Table 12; conditions: adults, kidney bean seedling spraying, 72 h; A = compound I-72, B = emamectin benzoate
Text: Test subject: adult Bemisia tabaci (Gennadius), a sensitive strain reared indoors.
Experimental method: the spraying method was adopted. The kidney bean seedlings cultivated in the greenhouse were selected and evenly sprayed with the pesticide solution in the order from low dosage to high dosage according to the experimental design. After natural air-drying in the shade, a self-made glass cover was put on, and the test insects were introduced, with 20-30 insects for each treatment and 3 replicates. In addition, a blank control was set up. The number of dead and live insects was investigated 72 hours later. The corrected mortality rate was calculated using the Abbott's formula, and the DPS data processing software was used for statistical analysis to calculate the toxicities (LC50 values) of the single test pesticides and the mixtures under the test ratios.
as §10

[12] = tested on: 2nd-instar nymphs of Frankliniella occidentalis Pergande; experiment: Joint toxicity of I-72 + spinetoram, leaf spraying, Example 11, Table 11; conditions: kidney bean leaf spraying, 48 h, A = compound I-72, B = spinetoram
Text: Test subject: 2nd-instar nymphs of Frankliniella occidentalis Pergande, a sensitive strain reared indoors.
Experimental method: the spraying method was adopted. The kidney bean leaves cultivated in the greenhouse were selected, and the petioles were wrapped with moist degreased cotton and sealing film. They were evenly sprayed with the pesticide solution in the order from low dosage to high dosage according to the experimental design, placed in a 6-cm-diameter Petri dish with filter paper. After natural air-drying in the shade, the test insects were introduced, with 20 insects for each treatment and 3 replicates. In addition, a blank control was set up. The number of dead and live insects was investigated 48 hours later. The corrected mortality rate was calculated using the Abbott's formula, and the DPS data processing software was used for statistical analysis to calculate the toxicities (LC50 values) of the single test pesticides and the mixtures under the test ratios.
as §10

[13] = tested on: 2nd-instar larvae of Chilo suppressalis (Walker); experiment: whole plant or invertebrate; conditions: resistant 2nd-instar larvae, rice stalk spraying, 72 h; A = compound I-72, B = spinetoram
Protocol: In addition, a blank control was set up. The number of dead and live insects was investigated 72 hours later.

[14] = tested on: 3rd-instar larvae of Spodoptera frugiperda; experiment: Joint toxicity of I-72 + spinosad, corn leaf dipping, Example 10, Table 10; conditions: 72 h, A = compound I-72, B = spinosad
Text: as §6, §7, §10

Question: With `N#Cc1ccc(CC(=NNC(=O)Nc2ccc(OC(F)(F)F)cc2)c2cccc(C(F)(F)F)c2)cc1` (mixture of isomers) [metaflumizone, reference compound] as the compound, how does the LC50 [1] read?
Answer: 1.0724 µg/mL

Question: What about the LC50 [2] of the same compound?
Answer: 12.8933 µg/mL

Question: Which results are given for `COP(=O)(NC(C)=O)SC` (stereo not shown) [acephate]?
Answer: LC50 [3]: 34.9 µg/mL; LC50 [4]: 15.5 µg/mL; LC50 [5]: 11.1 µg/mL; LC50 [6]: 61.6 µg/mL

Question: How did the LC50 [7] turn out when `COC(=O)N(C(=O)N1CO[C@@]2(C(=O)OC)Cc3cc(Cl)ccc3C2=N1)c1ccc(OC(F)(F)F)cc1` [indoxacarb, reference compound] was run?
Answer: 2.2438 µg/mL

Question: And the LC50 [8]?
Answer: 0.8555 µg/mL

Question: What does the source list for emamectin benzoate?
Answer: LC50 [9]: 0.0878 µg/mL; Mortality rate (%) ([10]; single agent 0.05 mg/L): 41.67%; Mortality rate (%) ([10]; single agent 0.1 mg/L): 50.00%; Mortality rate (%) ([10]; single agent 0.2 mg/L): 79.17%; Mortality rate (%) ([10]; single agent 0.5 mg/L): 87.50%; LC50 [11]: 1.1995 µg/mL

Question: spinetoram was tested. Which LC50 [12] did it give?
Answer: 0.7822 µg/mL

Question: What about the LC50 [13] of the same compound?
Answer: 9.4220 µg/mL

Question: And the “Mortality rate (%)” value ([10]; single agent 0.1 mg/L)?
Answer: 8.33%

Question: And the “Mortality rate (%)” value ([10]; single agent 1 mg/L)?
Answer: 56.25%

Question: What about the “Mortality rate (%)” value ([10]; single agent 2 mg/L) of the same compound?
Answer: 70.83%

Question: And the “Mortality rate (%)” value ([10]; single agent 5 mg/L)?
Answer: 81.25%

Question: For spinosad, which LC50 [14] is on record?
Answer: 1.1242 µg/mL

Question: What about the “Mortality rate (%)” value ([10]; single agent 0.1 mg/L) of the same compound?
Answer: 4.17%

Question: What about the “Mortality rate (%)” value ([10]; single agent 1 mg/L) of the same compound?
Answer: 52.08%

Question: What about the “Mortality rate (%)” value ([10]; single agent 2 mg/L) of the same compound?
Answer: 68.75%

Question: What about the “Mortality rate (%)” value ([10]; single agent 5 mg/L) of the same compound?
Answer: 79.17%

Reference: US20260198495A1, “BINARY INSECTICIDE COMPOSITION AND USE THEREOF” (SHENYANG SINOCHEM AGROCHEMICALS R & D CO., LTD., priority 2022, published 2026)
